Assays:
Experiment in all cases: Cell proliferation assay (ATPlite), drug with vs without cobicistat
Format in all cases: cell-based
769-P = 769-P cell line; 120 hours incubation
Method in brief: (§1)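 Nine-point compound titrations, 3.16×10^−5 M to 3.16×10^−9 M, were applied in duplicate to cells seeded one day earlier at 200–3200 per well.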

786-O = 786-O cell line; 120 hours incubation
Method in brief: as §1

A-498 = A-498 cell line; 120 hours incubation
Method in brief: as §1

A388 = A388 cell line; 120 hours incubation
Method in brief: as §1

ACHN = ACHN cell line; 120 hours incubation
Method in brief: as §1

AN3 CA = AN3 CA cell line; 120 hours incubation
Method in brief: as §1

AU-565 = AU-565 cell line; 120 hours incubation
Method in brief: as §1

BT-549 = BT-549 cell line; 120 hours incubation
Method in brief: as §1

BxPC-3 = BxPC-3 cell line; 120 hours incubation
Method in brief: as §1

CAL 27 = CAL 27 cell line; 120 hours incubation
Method in brief: as §1

CCRF-CEM = CCRF-CEM cell line; 120 hours incubation
Method in brief: as §1

COLO 205 = COLO 205 cell line; 120 hours incubation
Method in brief: as §1

DLD-1 = DLD-1 cell line; 120 hours incubation
Method in brief: as §1

Daoy = Daoy cell line; 120 hours incubation
Method in brief: as §1

DoTc2 4510 = DoTc2 4510 cell line; 120 hours incubation
Method in brief: as §1

HCT 116 = HCT 116 cell line; 120 hours incubation
Method in brief: as §1

HCT-15 = HCT-15 cell line; 120 hours incubation
Method in brief: as §1

J82 = J82 cell line; 120 hours incubation
Method in brief: as §1

KU812 = KU812 cell line; 120 hours incubation
Method in brief: as §1

LNCaP FGC = LNCaP FGC cell line; 120 hours incubation
Method in brief: as §1

LoVo = LoVo cell line; 120 hours incubation
Method in brief: as §1

MCF7 = MCF7 cell line; 120 hours incubation
Method in brief: as §1

MG-63 = MG-63 cell line; 120 hours incubation
Method in brief: as §1

OVCAR-3 = OVCAR-3 cell line; 120 hours incubation
Method in brief: as §1

SJCRH30 = SJCRH30 cell line; 120 hours incubation
Method in brief: as §1

SNU-C2B = SNU-C2B cell line; 120 hours incubation
Method in brief: as §1

SR = SR cell line; 120 hours incubation
Method in brief: as §1

SUP-T1 = SUP-T1 cell line; 120 hours incubation
Method in brief: as §1

T24 = T24 cell line; 120 hours incubation
Method in brief: as §1

U-87 MG = U-87 MG cell line; 120 hours incubation
Method in brief: as §1

Compound	Fold change in IC50 (IC50 [Drug + Cobicistat]/IC50 [Drug]) (769-P)	Fold change in IC50 (IC50 [Drug + Cobicistat]/IC50 [Drug]) (786-O)	Fold change in IC50 (IC50 [Drug + Cobicistat]/IC50 [Drug]) (A-498)	Fold change in IC50 (IC50 [Drug + Cobicistat]/IC50 [Drug]) (A388)	Fold change in IC50 (IC50 [Drug + Cobicistat]/IC50 [Drug]) (ACHN)	Fold change in IC50 (IC50 [Drug + Cobicistat]/IC50 [Drug]) (AN3 CA)	Fold change in IC50 (IC50 [Drug + Cobicistat]/IC50 [Drug]) (AU-565)	Fold change in IC50 (IC50 [Drug + Cobicistat]/IC50 [Drug]) (BT-549)	Fold change in IC50 (IC50 [Drug + Cobicistat]/IC50 [Drug]) (BxPC-3)	Fold change in IC50 (IC50 [Drug + Cobicistat]/IC50 [Drug]) (CAL 27)	Fold change in IC50 (IC50 [Drug + Cobicistat]/IC50 [Drug]) (CCRF-CEM)	Fold change in IC50 (IC50 [Drug + Cobicistat]/IC50 [Drug]) (COLO 205)	Fold change in IC50 (IC50 [Drug + Cobicistat]/IC50 [Drug]) (DLD-1)	Fold change in IC50 (IC50 [Drug + Cobicistat]/IC50 [Drug]) (Daoy)	Fold change in IC50 (IC50 [Drug + Cobicistat]/IC50 [Drug]) (DoTc2 4510)	Fold change in IC50 (IC50 [Drug + Cobicistat]/IC50 [Drug]) (HCT 116)	Fold change in IC50 (IC50 [Drug + Cobicistat]/IC50 [Drug]) (HCT-15)	Fold change in IC50 (IC50 [Drug + Cobicistat]/IC50 [Drug]) (J82)	Fold change in IC50 (IC50 [Drug + Cobicistat]/IC50 [Drug]) (KU812)	Fold change in IC50 (IC50 [Drug + Cobicistat]/IC50 [Drug]) (LNCaP FGC)	other results
CC(=O)O[C@@]12CO[C@@H]1C[C@H](O)[C@@]1(C)C(=O)[C@H](O)C3=C(C)[C@@H](OC(=O)[C@H](O)[C@@H](NC(=O)OC(C)(C)C)c4ccccc4)C[C@@](O)([C@@H](OC(=O)c4ccccc4)[C@H]21)C3(C)C [docetaxel]	3.0 fold	4.2 fold	4.2 fold	6.0 fold	4.6 fold	2.1 fold	3.2 fold	1.4 fold	3.0 fold	1.4 fold	3.6 fold	3.9 fold	2.7 fold	6.4 fold	5.3 fold	1.9 fold	2.8 fold	3.5 fold	5.6 fold	3.8 fold	Fold change in IC50 (IC50 [Drug + Cobicistat]/IC50 [Drug]) (LoVo): 2.0 fold; Fold change in IC50 (IC50 [Drug + Cobicistat]/IC50 [Drug]) (MCF7): 4.1 fold; Fold change in IC50 (IC50 [Drug + Cobicistat]/IC50 [Drug]) (MG-63): 3.3 fold; Fold change in IC50 (IC50 [Drug + Cobicistat]/IC50 [Drug]) (OVCAR-3): 2.2 fold; Fold change in IC50 (IC50 [Drug + Cobicistat]/IC50 [Drug]) (SJCRH30): 4.1 fold; Fold change in IC50 (IC50 [Drug + Cobicistat]/IC50 [Drug]) (SNU-C2B): 4.8 fold; Fold change in IC50 (IC50 [Drug + Cobicistat]/IC50 [Drug]) (SR): 3.6 fold; Fold change in IC50 (IC50 [Drug + Cobicistat]/IC50 [Drug]) (SUP-T1): 4.5 fold; Fold change in IC50 (IC50 [Drug + Cobicistat]/IC50 [Drug]) (T24): 6.3 fold; Fold change in IC50 (IC50 [Drug + Cobicistat]/IC50 [Drug]) (U-87 MG): 2.0 fold
CC[C@]1(O)C[C@@H]2CN(CCc3c([nH]c4ccccc34)[C@@](C(=O)OC)(c3cc4c(cc3OC)N(C)[C@H]3[C@@](O)(C(=O)OC)[C@H](OC(C)=O)[C@]5(CC)C=CCN6CC[C@]43[C@@H]65)C2)C1 [vinblastine]	2.5 fold	2.5 fold	3.8 fold	4.7 fold	3.8 fold	3.9 fold	3.0 fold	3.3 fold	2.4 fold	2.8 fold	3.3 fold	4.9 fold	2.2 fold	5.7 fold	5.0 fold	2.0 fold	2.3 fold	4.2 fold	4.4 fold	4.0 fold	Fold change in IC50 (IC50 [Drug + Cobicistat]/IC50 [Drug]) (LoVo): 1.9 fold; Fold change in IC50 (IC50 [Drug + Cobicistat]/IC50 [Drug]) (MCF7): 5.3 fold; Fold change in IC50 (IC50 [Drug + Cobicistat]/IC50 [Drug]) (MG-63): 2.8 fold; Fold change in IC50 (IC50 [Drug + Cobicistat]/IC50 [Drug]) (OVCAR-3): 2.6 fold; Fold change in IC50 (IC50 [Drug + Cobicistat]/IC50 [Drug]) (SJCRH30): 3.8 fold; Fold change in IC50 (IC50 [Drug + Cobicistat]/IC50 [Drug]) (SNU-C2B): 4.5 fold; Fold change in IC50 (IC50 [Drug + Cobicistat]/IC50 [Drug]) (SR): 4.0 fold; Fold change in IC50 (IC50 [Drug + Cobicistat]/IC50 [Drug]) (SUP-T1): 3.0 fold; Fold change in IC50 (IC50 [Drug + Cobicistat]/IC50 [Drug]) (T24): 5.2 fold; Fold change in IC50 (IC50 [Drug + Cobicistat]/IC50 [Drug]) (U-87 MG): 2.6 fold
COc1cccc2c1C(=O)c1c(O)c3c(c(O)c1C2=O)C[C@@](O)(C(=O)CO)C[C@@H]3O[C@H]1C[C@H](N)[C@H](O)[C@H](C)O1 [doxorubicin]	5.1 fold	2.3 fold	1.2 fold	1.7 fold	2.2 fold	2.0 fold	2.1 fold	1.5 fold	2.2 fold	1.9 fold	2.7 fold	2.3 fold	1.4 fold	1.6 fold	1.7 fold	1.8 fold	2.0 fold	2.2 fold	2.9 fold	1.8 fold	Fold change in IC50 (IC50 [Drug + Cobicistat]/IC50 [Drug]) (LoVo): 2.0 fold; Fold change in IC50 (IC50 [Drug + Cobicistat]/IC50 [Drug]) (MCF7): 1.9 fold; Fold change in IC50 (IC50 [Drug + Cobicistat]/IC50 [Drug]) (MG-63): 2.4 fold; Fold change in IC50 (IC50 [Drug + Cobicistat]/IC50 [Drug]) (OVCAR-3): 2.5 fold; Fold change in IC50 (IC50 [Drug + Cobicistat]/IC50 [Drug]) (SJCRH30): 2.2 fold; Fold change in IC50 (IC50 [Drug + Cobicistat]/IC50 [Drug]) (SNU-C2B): 1.2 fold; Fold change in IC50 (IC50 [Drug + Cobicistat]/IC50 [Drug]) (SR): 1.8 fold; Fold change in IC50 (IC50 [Drug + Cobicistat]/IC50 [Drug]) (SUP-T1): 2.0 fold; Fold change in IC50 (IC50 [Drug + Cobicistat]/IC50 [Drug]) (T24): 1.8 fold; Fold change in IC50 (IC50 [Drug + Cobicistat]/IC50 [Drug]) (U-87 MG): 0.7 fold

From US20180036289A1 (Gilead Sciences, Inc., priority 2016, published 2018)
